Data from ChEMBL document CHEMBL5291721, “A preclinical secondary pharmacology resource illuminates target-adverse drug reaction associations of marketed drugs” (Nat Commun, 2023).

Assays:
[1] = target: Beta-2 adrenergic receptor (Homo sapiens, UniProt P07550); assay type: functional, cell-based
[2] = target: T1, Gastrin/cholecystokinin type B receptor (Homo sapiens, UniProt P32239)
T1 sequence (P32239 whole entry): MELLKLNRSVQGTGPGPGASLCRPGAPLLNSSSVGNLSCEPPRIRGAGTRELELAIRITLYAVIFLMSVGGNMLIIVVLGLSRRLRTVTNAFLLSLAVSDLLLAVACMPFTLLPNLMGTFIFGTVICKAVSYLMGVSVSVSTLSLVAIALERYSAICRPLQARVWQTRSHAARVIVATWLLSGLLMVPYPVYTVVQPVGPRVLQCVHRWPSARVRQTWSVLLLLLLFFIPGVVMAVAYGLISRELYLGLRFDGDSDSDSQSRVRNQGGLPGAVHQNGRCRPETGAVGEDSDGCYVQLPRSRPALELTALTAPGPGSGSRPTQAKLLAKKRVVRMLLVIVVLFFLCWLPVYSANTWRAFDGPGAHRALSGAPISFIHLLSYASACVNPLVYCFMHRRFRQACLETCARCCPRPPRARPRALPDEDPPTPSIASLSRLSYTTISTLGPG

Progesterone receptor = target: T2, Progesterone receptor (Homo sapiens, UniProt P06401); assay type: functional
T2 sequence (P06401 whole entry): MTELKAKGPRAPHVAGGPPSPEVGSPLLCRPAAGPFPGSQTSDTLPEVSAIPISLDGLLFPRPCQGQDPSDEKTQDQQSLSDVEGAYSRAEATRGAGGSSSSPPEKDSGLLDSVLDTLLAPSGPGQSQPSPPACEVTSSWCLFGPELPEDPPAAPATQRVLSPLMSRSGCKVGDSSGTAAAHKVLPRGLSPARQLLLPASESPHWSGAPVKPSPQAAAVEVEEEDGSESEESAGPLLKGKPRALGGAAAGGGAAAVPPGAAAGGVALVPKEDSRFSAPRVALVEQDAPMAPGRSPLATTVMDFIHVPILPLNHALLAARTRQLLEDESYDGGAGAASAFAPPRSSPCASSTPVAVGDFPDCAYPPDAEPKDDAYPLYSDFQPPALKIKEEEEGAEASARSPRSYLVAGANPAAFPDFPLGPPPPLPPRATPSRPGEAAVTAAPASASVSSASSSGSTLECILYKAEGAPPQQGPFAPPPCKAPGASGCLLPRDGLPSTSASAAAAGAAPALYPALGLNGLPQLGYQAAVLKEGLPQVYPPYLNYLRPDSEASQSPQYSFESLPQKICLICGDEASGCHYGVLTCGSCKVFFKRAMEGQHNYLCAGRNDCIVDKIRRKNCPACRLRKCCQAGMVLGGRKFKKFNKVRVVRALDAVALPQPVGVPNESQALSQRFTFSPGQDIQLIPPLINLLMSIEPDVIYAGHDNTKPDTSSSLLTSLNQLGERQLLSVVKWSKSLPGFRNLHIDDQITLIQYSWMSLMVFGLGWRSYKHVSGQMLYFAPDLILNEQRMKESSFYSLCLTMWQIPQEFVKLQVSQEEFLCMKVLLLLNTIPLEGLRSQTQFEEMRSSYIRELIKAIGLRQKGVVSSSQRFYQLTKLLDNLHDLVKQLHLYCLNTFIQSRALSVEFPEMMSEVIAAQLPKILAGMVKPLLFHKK

Mu-type opioid receptor = Mu-type opioid receptor (Homo sapiens, UniProt P35372); test: biochemical; assay type: functional
Sequence of Mu-type opioid receptor (P35372 whole entry): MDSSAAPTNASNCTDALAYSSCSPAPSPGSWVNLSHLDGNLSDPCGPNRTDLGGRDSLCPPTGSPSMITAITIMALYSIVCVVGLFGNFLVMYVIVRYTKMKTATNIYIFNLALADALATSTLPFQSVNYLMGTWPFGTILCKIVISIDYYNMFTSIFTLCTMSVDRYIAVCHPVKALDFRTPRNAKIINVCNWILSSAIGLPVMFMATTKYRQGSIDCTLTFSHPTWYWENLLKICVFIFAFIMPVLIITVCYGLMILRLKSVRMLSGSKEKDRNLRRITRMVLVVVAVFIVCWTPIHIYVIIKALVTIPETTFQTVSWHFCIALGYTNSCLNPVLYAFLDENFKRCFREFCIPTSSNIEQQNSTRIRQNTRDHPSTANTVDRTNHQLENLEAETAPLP

[3] = target: T3, Equilibrative nucleoside transporter 1 (Homo sapiens, UniProt Q99808)
T3 sequence (Q99808 whole entry): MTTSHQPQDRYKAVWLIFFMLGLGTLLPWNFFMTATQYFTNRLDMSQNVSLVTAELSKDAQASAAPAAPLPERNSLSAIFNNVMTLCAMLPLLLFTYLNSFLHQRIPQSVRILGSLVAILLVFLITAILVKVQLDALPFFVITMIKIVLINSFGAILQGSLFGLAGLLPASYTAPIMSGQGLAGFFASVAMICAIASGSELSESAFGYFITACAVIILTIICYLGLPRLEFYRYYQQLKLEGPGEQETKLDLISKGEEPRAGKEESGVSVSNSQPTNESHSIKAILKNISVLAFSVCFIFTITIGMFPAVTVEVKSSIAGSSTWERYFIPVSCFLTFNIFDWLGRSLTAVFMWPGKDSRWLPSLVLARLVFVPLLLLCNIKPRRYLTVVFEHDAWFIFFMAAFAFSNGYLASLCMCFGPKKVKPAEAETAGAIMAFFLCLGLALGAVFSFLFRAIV

[4] = target: T4, Alpha-1A adrenergic receptor (Homo sapiens, UniProt P35348)
T4 sequence (P35348 whole entry): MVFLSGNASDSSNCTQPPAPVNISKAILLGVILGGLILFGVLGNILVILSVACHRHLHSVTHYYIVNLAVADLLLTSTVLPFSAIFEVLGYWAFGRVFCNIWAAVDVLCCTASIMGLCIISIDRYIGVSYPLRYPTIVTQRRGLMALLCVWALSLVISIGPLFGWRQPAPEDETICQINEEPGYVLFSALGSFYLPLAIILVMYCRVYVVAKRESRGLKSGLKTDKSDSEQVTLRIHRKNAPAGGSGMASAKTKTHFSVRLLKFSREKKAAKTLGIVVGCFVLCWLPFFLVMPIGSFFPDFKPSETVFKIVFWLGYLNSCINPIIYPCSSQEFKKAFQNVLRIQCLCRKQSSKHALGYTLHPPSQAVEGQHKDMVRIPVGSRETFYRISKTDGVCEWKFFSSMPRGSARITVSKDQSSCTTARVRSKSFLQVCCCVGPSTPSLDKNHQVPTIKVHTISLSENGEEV

Melanocortin receptor 4 = Melanocortin receptor 4 (Homo sapiens, UniProt P32245)
Sequence of Melanocortin receptor 4 (P32245 whole entry): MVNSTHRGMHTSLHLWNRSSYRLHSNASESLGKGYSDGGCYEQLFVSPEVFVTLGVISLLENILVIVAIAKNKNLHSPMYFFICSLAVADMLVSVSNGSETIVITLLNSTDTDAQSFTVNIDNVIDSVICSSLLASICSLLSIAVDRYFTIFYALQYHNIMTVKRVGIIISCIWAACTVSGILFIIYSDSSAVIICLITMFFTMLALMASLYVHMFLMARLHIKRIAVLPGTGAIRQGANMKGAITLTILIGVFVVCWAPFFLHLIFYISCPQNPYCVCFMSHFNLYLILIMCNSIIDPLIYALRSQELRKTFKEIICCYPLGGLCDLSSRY

[5] = target: T5, 5-hydroxytryptamine receptor 1A (Homo sapiens, UniProt P08908); assay type: functional, cell-based
T5 sequence (P08908 whole entry): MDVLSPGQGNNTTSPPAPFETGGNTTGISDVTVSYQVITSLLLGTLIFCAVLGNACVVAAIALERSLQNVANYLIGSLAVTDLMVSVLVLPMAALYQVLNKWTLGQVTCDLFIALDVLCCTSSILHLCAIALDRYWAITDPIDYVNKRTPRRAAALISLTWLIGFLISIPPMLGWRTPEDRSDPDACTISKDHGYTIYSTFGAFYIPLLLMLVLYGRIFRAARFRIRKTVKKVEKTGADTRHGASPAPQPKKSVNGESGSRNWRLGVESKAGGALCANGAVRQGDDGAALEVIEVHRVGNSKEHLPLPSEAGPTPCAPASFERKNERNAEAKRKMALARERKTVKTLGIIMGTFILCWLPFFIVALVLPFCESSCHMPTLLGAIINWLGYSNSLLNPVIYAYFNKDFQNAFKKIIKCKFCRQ

Cannabinoid receptor 1 = Cannabinoid receptor 1 (Homo sapiens, UniProt P21554)
Sequence of Cannabinoid receptor 1 (P21554 whole entry): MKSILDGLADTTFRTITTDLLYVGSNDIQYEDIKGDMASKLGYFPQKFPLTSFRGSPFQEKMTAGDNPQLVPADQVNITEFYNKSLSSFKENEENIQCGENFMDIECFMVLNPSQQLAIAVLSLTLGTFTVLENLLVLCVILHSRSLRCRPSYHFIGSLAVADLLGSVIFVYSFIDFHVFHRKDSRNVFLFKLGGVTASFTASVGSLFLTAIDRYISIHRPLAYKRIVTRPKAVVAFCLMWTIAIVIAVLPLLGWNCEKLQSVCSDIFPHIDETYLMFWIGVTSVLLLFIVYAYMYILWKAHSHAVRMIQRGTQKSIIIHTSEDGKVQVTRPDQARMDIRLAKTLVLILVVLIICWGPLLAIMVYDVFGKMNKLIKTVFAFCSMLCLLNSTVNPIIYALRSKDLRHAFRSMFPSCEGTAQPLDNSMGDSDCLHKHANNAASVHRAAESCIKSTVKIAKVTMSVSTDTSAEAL
Note: assay procedure not described here.

Sequence of Beta-2 adrenergic receptor (P07550 whole entry): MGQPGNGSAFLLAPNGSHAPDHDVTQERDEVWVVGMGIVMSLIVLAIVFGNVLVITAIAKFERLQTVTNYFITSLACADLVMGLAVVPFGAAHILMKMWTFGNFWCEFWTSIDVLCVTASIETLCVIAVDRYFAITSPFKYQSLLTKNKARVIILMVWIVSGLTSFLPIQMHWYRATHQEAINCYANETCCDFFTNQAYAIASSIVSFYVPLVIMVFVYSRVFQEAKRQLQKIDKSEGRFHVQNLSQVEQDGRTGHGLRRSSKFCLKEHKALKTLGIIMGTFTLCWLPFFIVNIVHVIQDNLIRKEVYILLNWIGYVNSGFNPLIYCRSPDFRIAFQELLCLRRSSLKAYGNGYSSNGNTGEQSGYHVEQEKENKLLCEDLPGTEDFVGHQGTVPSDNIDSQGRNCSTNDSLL

AC50 [2] [µM] | AC50 (Progesterone receptor) [µM] | AC50 (Mu-type opioid receptor) [µM] | AC50 [3] [µM] | AC50 [4] [µM] | AC50 (Melanocortin receptor 4) [µM] | AC50 [5] [µM] | AC50 (Cannabinoid receptor 1) [µM] | Structure (SMILES) | AC50 [1] [µM]
> 30 |  | > 30 | > 30 |  |  |  | > 30 | C[C@]12CCC(=O)C=C1[C@@H]1C[C@@H]1[C@H]1[C@@H]3[C@@H]4C[C@@H]4[C@@]4(CCC(=O)O4)[C@@]3(C)CC[C@@H]12 [DROSPIRENONE] | 
> 30 |  |  | > 30 | > 10 | > 30 | > 10 | > 10 | C[C@]12C=CC(=O)C=C1CC[C@@H]1[C@@H]2[C@@H](O)C[C@@]2(C)[C@H]1CC[C@]2(O)C(=O)CO [PREDNISOLONE] | > 30
> 30 |  | > 30 |  |  |  | > 30 |  | CC1(C)O[C@@H]2C[C@H]3[C@@H]4CCC5=CC(=O)C=C[C@]5(C)[C@@]4(F)[C@@H](O)C[C@]3(C)[C@]2(C(=O)CO)O1 [TRIAMCINOLONE ACETONIDE] | 
> 30 | > 3 | > 30 | > 30 |  |  | > 30 |  | C[C@]12C=CC(=O)C=C1C(Cl)=C[C@@H]1[C@@H]2[C@@H](O)C[C@@]2(C)[C@H]1CC[C@]2(O)C(=O)CO [CLOPREDNOL] | > 30
 | > 30 |  | > 10 | > 10 | > 10 | > 30 | > 10 | CN(C)[C@@H]1C(O)=C(C(=O)NCN2CCCC2)C(=O)[C@@]2(O)C(O)=C3C(=O)c4c(O)cccc4[C@@](C)(O)[C@H]3C[C@@H]12 [ROLITETRACYCLINE] | 
> 30 |  | > 30 | > 30 |  |  | > 30 |  | C[C@]12CCC(=O)C=C1C=C[C@@H]1[C@@H]2CC[C@@]2(C)[C@H]1CC[C@@]21CCC(=O)O1 [CANRENONE] | > 30

Continued, compound first:

Structure (SMILES) | AC50 [2] [µM] | AC50 (Progesterone receptor) [µM] | AC50 (Mu-type opioid receptor) [µM] | AC50 [3] [µM] | AC50 [4] [µM] | AC50 (Melanocortin receptor 4) [µM] | AC50 [5] [µM] | AC50 (Cannabinoid receptor 1) [µM] | AC50 [1] [µM]
CC(C)(Oc1ccc(Cl)cc1)C(=O)OCCOC(=O)c1cccnc1 [ETOFIBRATE] | > 30 | > 30 | > 30 | > 30 |  |  |  |  | > 30
N=C(N)NC(=O)c1nc(Cl)c(N)nc1N [AMILORIDE] | > 30 | > 30 | 4 | > 30 | 2.69 | > 30 | 16 | > 30 | 
COc1ccc(-c2cc(=S)ss2)cc1 [ANETHOLTRITHION] | 5.3 |  | > 30 | 5.4 |  |  | > 30 |  | 
CN(C)CCC(O)(c1ccccc1)c1ccccc1Cl (stereo not drawn) [CHLOPHEDIANOL] |  | > 10 |  | > 10 | 11.8 | > 10 |  | > 10 | 
Cc1ccc(O)c([C@H](CCN(C(C)C)C(C)C)c2ccccc2)c1 [TOLTERODINE] |  |  |  |  | 2.74 |  | > 10 | > 10 | 
COc1cccc2c1C(=O)c1c(O)c3c(c(O)c1C2=O)C[C@@](O)(C(=O)CO)C[C@@H]3O[C@H]1C[C@H](N)[C@H](O)[C@H](C)O1 [DOXORUBICIN] | > 30 | > 30 |  | > 30 | > 10 | > 30 |  | > 10 | > 30
CC(C)(C)NCC(O)COc1ccccc1C#N (stereo not drawn) [BUNITROLOL] |  |  | > 30 |  |  |  |  |  | > 30
CCC(=O)c1ccc2c(c1)N(CC(C)N(C)C)c1ccccc1S2 (stereo not drawn) [PROPIOMAZINE] |  | > 30 |  | > 10 | 0.0294 | > 10 | 2.7 | > 10 | 
COc1ccc(C(=O)c2ccccc2)c(O)c1 [OXYBENZONE] |  |  | > 30 |  |  |  |  |  | > 30
Oc1cc(Cl)ccc1Oc1ccc(Cl)cc1Cl [TRICLOSAN] | > 30 | 18 | > 30 |  |  |  |  |  | > 30
CCn1c(=O)c2c(nc(/C=C/c3ccc(OC)c(OC)c3)n2C)n(CC)c1=O [ISTRADEFYLLINE] |  | > 30 |  |  |  |  |  |  | 
